Like-named read-outs stand apart in the source and are kept apart here. A value given as a limit tells only on which side of the number the result lay.

The target of test [1] is P. falciparum translation (P. falciparum lysate). The experiment in a line: P. falciparum in vitro translation (PfIVT) assay, lysate-based, luciferase reporter. The format is biochemical, Plasmodium falciparum. The conditions noted are these: for IC50: established inhibitors of protein translation, read-out: IC50 values, µM PfIVT (Table S1). An excerpt: (§1) Our P. falciparum in vitro translation (PfIVT) assay is built upon previously established assays ([14], [17]) and is summarized in Fig. 1A. In this assay, successful reconstitution of Plasmodium protein translation is reported via synthesis of a luciferase reporter. For PfIVT, two independent untranslated regions (UTRs), previously shown to promote strong levels of translation ([17]), were introduced upstream and downstream of the luciferase. The 5′ UTR from P. falciparum histidine-rich protein 3 (PfHrp3) ([18]) was introduced upstream of the reporter gene, and the 3′ UTR from P. falciparum histidine-rich protein 2 (PfHrp2) gene ([19]) was introduced downstream. For the reporter construct to support our complementary human IVT assay (HsIVT), the 5′ UTR was replaced with an internal ribosome entry site (IRES) from encephalomyocarditis virus (EMCV) ([20]) and the 3′ UTR was replaced with a poly(A) tail ([21]). […] Finally, a 30-bp poly(A) tail, present within the vector and downstream of the luciferase gene, was inserted to enhance mRNA stability ([21]).
(§2) Translationally active P. falciparum or human embryonic kidney (HEK) 293F lysates were supplemented with accessory, helper, amino acid, and energy regeneration solutions (see Materials and Methods for details). In vitro translation reactions were initiated by the addition of purified mRNA to each reaction well. Using this basic assay format, a number of parameters were assessed and optimized, namely, assay temperature, time, mRNA concentration, and reaction volume (summarized in Fig. S2 in the supplemental material). In addition, we compared the luminescence signal of the CBG firefly luciferase with CBG99, derived from the click beetle […] ([18]).
3D7 parasites were synchronized following two rounds of treatment with D-sorbitol (5%), as previously described ([40]). The hematocrit was reduced from 5% (for standard culture) to 1.5 to 2% and cultures were transferred into HYPERflasks (Corning). Fresh medium was added once or twice daily. […] Harvested red blood cells (infected) were lysed by incubation in 0.1% (wt/vol) saponin on ice for 10 min with gentle agitation. Free parasites were harvested by centrifugation (2,800 × g, 10 min, 4°C) and washed 3 times in wash buffer (WB; 100 mM potassium acetate, 2.5 mM magnesium acetate, 45 mM HEPES [pH 7.4], 250 mM sucrose, 2 mM dithiothreitol, and 15 μM leupeptin) to remove lysed red blood cell debris. The resulting pellet was resuspended in 1 volume of WB supplemented with cOmplete EDTA-free protease inhibitor cocktail (Roche; 1 tablet/20 mL) and human RNase A inhibitor (Sigma; 5 U/mL). Parasite lysis was achieved by nitrogen cavitation using a prechilled 45-mL Parr cell disruption vessel (1,500 lb/in^2, 60 min, 4°C). To clarify the lysate, it was centrifuged (10,000 × g, 15 min, 4°C), and the supernatant was collected, transferred into fresh tubes, and centrifuged (30,000 × g, 15 min, 4°C). As a quality assurance step for each lysate, the RNA content of the resulting supernatant was determined using a NanoDrop spectrophotometer (Shimadzu). Supernatants with RNA levels of >250 ng/μL were aliquoted (100 μL), flash frozen in liquid nitrogen, and stored at −80°C.

Test [2] has as its system asexual-blood-stage (ABS) P. falciparum. The experiment in a line: SYBR green-based P. falciparum asexual growth inhibition assay. To be noted: Plasmodium falciparum. The format is cell-based. How it is done: The Plasmodium falciparum reference strain 3D7 used throughout this study was cultured as previously described ([39]). Briefly, cultures incubated at 37°C in a humidified atmosphere of 1% O2 and 3% CO2 in balance with N2 were maintained in RPMI 1640 media supplemented with 5% A^+ human red blood cells (provided by the Scottish National Blood Transfusion Service), 25 mM HEPES, 2 mM L-glutamine, 0.5% AlbuMAX II (Gibco), 12 mM sodium bicarbonate, 0.2 mM hypoxanthine, and 20 mg/L gentamicin (pH 7.3).
Our SYBR green asexual-growth assay was based on a previous report ([45]). In brief, 96-well black clear-bottom plates (Corning) were preprinted with a compound and normalized with DMSO to 0.5% of a total assay volume of 100 μL. Highly synchronized ring-stage parasites and blood were added to a 2% final parasitemia and 1% hematocrit. The compounds were incubated with parasites for 72 h prior to freezing at −20°C (to aid cell lysis). The plate was thawed on ice and lysis buffer (20 mM Tris pH 7.5, 5 mM EDTA, 0.008% [w/v] saponin, […]) containing SYBR green I (Thermo Fisher Scientific) at a final concentration of 0.02% (v/v) was added. The 96-well plate was equilibrated to room temperature for 1 h before fluorescence was determined on a TECAN Infinite Pro 200 microplate reader using green fluorescent protein (GFP) filters (excitation, 485 nm; emission, 535 nm). Data were fitted to a two-parameter equation using GraFit version 7.0 (Erithacus Software), and EC50 values were calculated. An excess of the standard inhibitor mefloquine (10 μM) was used to define 0% parasite growth.

The subject of test [3] is human translation (HEK 293F lysate). The experiment in a line: Human in vitro translation (HsIVT) assay, HEK 293F lysate, luciferase reporter. To be noted: for effect on translation in the HsIVT assay (Fig. S3A): 10 µM, three technical replicates; for IC50: weighted mean ± SD from at least two biological replicates, read-out: IC50 in the HsIVT assay (Fig. S3B). The format is biochemical.
Excerpt: as §1, §2
FreeStyle human embryonic kidney (HEK) 293F cells (Thermo Fisher Scientific) were grown in 500-mL polycarbonate Erlenmeyer vented flasks (Corning) containing FreeStyle 293 expression medium (Life Technologies) upon reaching a density of approximately 2 × 10^6. Cells were then centrifuged at 1,000 × g for 10 min at 4°C, the medium was discarded, and the resulting pellet was washed once in buffer II containing 20 U of human placental RNase inhibitor (Sigma-Aldrich) and cOmplete EDTA-free inhibitor cocktail (Roche) before being centrifuged at 2,800 × g for 10 min. Clarified HEK cell lysate was obtained in the same way as described for P. falciparum lysate.
PfIVT and HsIVT reactions (5 μL final volume) were performed in 384-well plates (Corning) containing 50% lysate from cells (either P. falciparum or HEK 293F), 10% amino acid solution (final concentration of 400 μM for each amino acid in 60 mM KOH; biotechrabbit), 10% energy recovery solution (final assay concentrations of 40 mM HEPES [pH 7.4], 1.5 mM ATP, 0.15 mM GTP, […] creatine phosphate, and 40 U/mL creatine phosphokinase), 10% helper solution (final assay concentrations of 200 μM cystine, 2% polyethylene glycol 3000 [PEG 3000], 1 mM spermidine, 0.5 mM folinic acid, and 15 μM leupeptin), 10% supplemental salt solution (22.5 mM HEPES [pH 7.4], 50 mM potassium acetate, 1 mM magnesium acetate, 1 mM DTT, 1 U/mL human placental RNase inhibitor, 0.1 mM leupeptin), and 10% cbg99 luciferase mRNA (3,000 ng/mL). A master mix solution containing all components was prepared on ice prior to assays, and 5 μL was dispensed into wells using an automated Integra VIAFLO 16-channel 12.5-μL pipette.

The mark [4] stands for this setting: established inhibitors of protein translation, read-out: EC50 values, µM PfABS (Table S1).

Turning to `O=C(NCCN1CCCC1)c1cc(-c2ccc(CN3CCOCC3)cc2Cl)nc2ccc(F)cc12` [DDD00197451, reference compound], the IC50 in test [1] was found to be 0.5 µM. Moreover, the “inhibition of translation (PfIVT), internal control” value in test [1] (internal control in all plates of the single-point screens) is more than 97%. For the same compound, the EC50 in test [2] (setting [4]) turned out to be 0.003 µM.

For the compound `NCCCC[C@H](N)C(=O)NS(=O)(=O)OC[C@H]1O[C@@H](n2cnc3c(N)ncnc32)[C@H](O)[C@@H]1O` [DDD01712277, reference compound], the IC50 in test [1] was 0.2 µM. For the same compound, the EC50 in test [2] (setting [4]) amounted to 0.1 µM.

With `O=C(NCCN1CCCC1)c1cc(-c2ccc(CN3CCOCC3)cc2)nc2ccc(F)cc12` [DDD107498/M5717, reference compound], the IC50 in test [1] came out at 0.1 µM. The “effect on translation in the HsIVT assay (Fig. S3A)” value (shortened to “effect on translation”) in test [3] is “little or no effect”. The EC50 in test [2] (setting [4]) was 0.0008 µM.

With `C[C@H]1CCC[C@H](C[C@H]2Cc3cc(O)cc(O)c3C(=O)O2)O1` [Cladosporin, cladosporin, reference compound], the IC50 in test [1] amounted to 13 µM. The “effect on translation” value in test [3] was “little or no effect”. In test [3] (100 μM), the “activity in HsIVT assay at 100 μM” value was “inactive”. Moreover, in test [2] (setting [4]), the EC50 was 0.07 µM.

Consider `O=C(Nc1ccc(F)c(-c2nc3cc(-c4ccccc4)cnc3[nH]2)c1)N1CCCC1` [MMV688372], for which the “PfIVT inhibition at 30 μM (%)” value in test [1] (single-point screen, 30 μM, Pathogen Box) stood at 62.9%. In addition, the concentration for a half-maximal effect (EC50) amounted to 13.6 µM in test [2] (3D7, 72 h, read-out: P. falciparum asexual-blood-stage EC50) and 14 µM in test [2] (read-out: EC50 against P. falciparum (text)).

As for `C[C@@H]1C[C@@H]([C@H](O)CC2CC(=O)NC(=O)C2)C(=O)[C@@H](C)C1` [Cycloheximide, cycloheximide, reference compound], the IC50 in test [1] was 0.5 µM. Besides, in test [3], the “inhibition of translation in HsIVT assay (validation)” value (“inhibition … (validation)” for short) is given as “successfully inhibit translation”, the “effect on translation” value is reported as “ablated activity” and the IC50 worked out at 1200 ± 40 nM. For the same compound, in test [2] (read-out: EC50 values, µM PfABS (Table S1)), the EC50 came out at 0.1 µM.

Take `O=C(CC1NCCCC1O)Cn1cnc2cc(Br)c(Cl)cc2c1=O` (stereo not drawn) [Halofuginone, halofuginone, reference compound]: the IC50 in test [1] worked out at 0.3 µM. Also, in test [3], the “inhibition … (validation)” value was “successfully inhibit translation”, the “effect on translation” value is recorded as “ablated activity” and the IC50 is 1700 ± 40 nM. The EC50 in test [2] (setting [4]) stood at 0.0004 µM.

Turning to `CC[C@H]1CN2CCc3cc(OC)c(OC)cc3[C@@H]2C[C@@H]1C[C@H]1NCCc2cc(OC)c(OC)cc21` [Emetine, emetine, reference compound], the IC50 in test [1] came out at 1.8 µM. Besides, in test [3], the “inhibition … (validation)” value is “successfully inhibit translation”, the “effect on translation” value was “ablated activity” and the IC50 worked out at 800 ± 100 nM. Besides, in test [2] (setting [4]), the EC50 turned out to be 0.03 µM.

The values are drawn from paper PMC9211397, “High-Throughput Screening Platform To Identify Inhibitors of Protein Synthesis with Potential for the Treatment of Malaria” (Antimicrobial Agents and Chemotherapy, 2022).
